Entries after “also recorded” stand apart in the source; their conditions may differ. Where no end group is shown, it is not given here.
What was measured:
α2-gliadin = test: EPB2 activation and α2-gliadin digestion under acidic conditions; assay type: biochemical, wheat
From the text: The gene for an endoprotease (EPB2; […] accession number U19384, nt 94-1963) from barley (Hordeum vulgare subsp. vulgare) was subcloned into a pET28b (Invitrogen) vector using BamH1 and EcoR1 insertion sites; the resulting plasmid was designated pMTB1. […] The proprotein was solubilized from the inclusion bodies using 7 M urea. The solubilized protein was purified on a Ni-NTA column. Auto-activation of proEPB2 to its mature, active form was achieved by addition of citrate-phosphate buffer, pH 3 (prepared by mixing 0.1 M sodium citrate and 0.2 M sodium phosphate). Under such acidic conditions, proEPB2 converts rapidly into a mature form with a molecular weight of 30 kDa (FIG. 2). By 72 hours, mature EPB2 undergoes autolysis. N-terminal sequencing yielded an N-terminal sequence beginning with VSDLP.
The pH optimum of proEPB2 activation and α2-gliadin digestion is 2.4-3.5, which can therefore provide a treatment for Celiac Sprue consisting of oral administration of proEPB2.

[1] = system: MX PEP (recombinant prolyl endopeptidase from Myxococcus xanthus); test: 0.1 μM MX PEP in PBS buffer; settings: 37° C.
[2] = system: FM PEP (recombinant prolyl endopeptidase from Flavobacterium meningosepticum); test: 0.1 μM FM PEP in PBS buffer; settings: 37° C.
chymotrypsin = test: gastric and pancreatic proteases, chymotrypsin playing a major role
[3] = system: pepsin (1:100 w/w ratio), trypsin (1:100), chymotrypsin (1:100), elastase (1:500) and carboxypeptidase (1:100); test: composite gastric/pancreatic enzymatic digestion
[4] = system: pepsin or any pancreatic enzyme; test: pepsin or any pancreatic enzyme
[5] = system: SC PEP (recombinant prolyl endopeptidase from Sphingomonas capsulata); test: 0.1 μM SC PEP in PBS buffer; settings: 37° C., up to t=5 min
[6] = system: prolyl endopeptidase (PEP, specific activity 28 μU/pg) from Flavobacterium meningosepticum (US Biological, MA); test: 27 ng/μl brush border membranes with exogenous prolyl endopeptidase from Flavobacterium meningosepticum; settings: rat, up to one hour
[7] = system: rat brush border membrane (BBM) peptidases; assay type: in vitro ADME
Description: To investigate the digestion of gluten, liquid chromatography coupled mass spectroscopy analysis (LC-MS-MS) was utilized to investigate the pathways and associated kinetics of hydrolysis of immunodominant gliadin peptides treated with rat BBM preparations. Because the rodent is an excellent small animal model for human intestinal structure and function, rat BBM was chosen as a suitable model system for these studies.
BBM fractions were prepared from rat small intestinal mucosa as described in Ahnen et al. (1982) J. Biol. Chem. 257, 12129-35. […] No proline aminopeptidase (EC 3.4.11.5) or prolyl endopeptidase activity (PEP, EC 3.4.21.26) activity was detectable (<5 μU/μg). Alkaline phosphatase and sucrase were used as control BBM enzymes with activities of 66 μU/μg and 350 μU/μg, respectively.
BBM fractions were partially purified from the small intestinal mucosa of adult female rats maintained on an ad libitum diet of wheat-based standard rodent chow. Total protein content was determined by a modified method of Lowry with BSA as a standard. Alkaline phosphatase activity was determined with nitrophenyl phosphate. Sucrase activity was measured using a coupled glucose assay. […] PEP activity was determined continuously with 0.4 mM Z-Gly-Pro-pNA in PBS:H2O:dioxane (8:1.2:0.8) at 30° C. One unit is the consumption of 1 μmol substrate per minute.
Proteolysis with the BBM preparation was investigated using the peptide (SEQ ID NO:1) […], a product of chymotryptic digestion of α-9 gliadin (Arentz-Hansen et al. (2000) J. Exp. Med. 191, 603-12). […] It was subjected to BBM digestion, followed by LC-MS-MS analysis. A standard 50 μl digestion mixture contained 100 μM of synthetic peptide, 10 μM tryptophan and Cbz-tryptophan as internal standards, and resuspended BBM preparations with a final protein content of 27 ng/μl and exogenous proteins, as indicated, in phosphate buffered saline. After incubation at 37° C. for the indicated time, the enzymes were inactivated by heating to 95° C. for 3 minutes. The reaction mixtures were analyzed by LC-MS (SpectraSystem, ThermoFinnigan) using a C18 reversed phase column (Vydac 218TP5215, 2.1×150 mm) with water:acetonitrile:formic acid (0.1%):trifluoroacetic acid (0.025%) as the mobile phase (flow: 0.2 ml/min) and a gradient of 10% acetonitrile for 3 minutes, 10-20% for 3 minutes, 20-25% for 21 minutes followed by a 95% wash. Peptide fragments in the mass range of m/z=300-2000 were detected by electrospray ionization mass spectroscopy using a LCQ ion trap and their identities were confirmed by MSMS fragmentation patterns.
BBM fractions were prepared from rat small intestinal mucosa.

[8] = In vivo perfusion of peptides through rat jejunum; settings: 15-20 cm jejunum segment, residence time 20 min
Description: FIG. 5. In vivo brush border membrane digestion of peptides.
In Vivo Endopeptidase Activity. An adult (female or male) rat was anesthetized and maintained at 36-37° C. during the entire surgical procedure. The peritoneal cavity was opened, and a small incision was made at the beginning and the end of a 15-20 cm jejunum segment. Polyethylene catheters were inserted and secured into the two ends. The input catheter was connected with a pump-driven syringe filled with a solution. The jejunum segment was perfused initially with PBS buffer to remove any residual debris at a flow rate of 0.4 ml/min. Purified peptide solutions (peptide concentration ranges from 25-100 μM) were then perfused at 0.4 ml/min through the jejunum segment with a 10-40 min residence time. In the case of a co-perfusion, the input catheter is connected with two simultaneous syringes, one with a peptide solution and the other with the prolyl endopeptidase solution (concentration ranges from 50-500 μU/μl). Fluid from the output catheter was collected into small centrifuge tubes in dry ice for subsequent analysis. The collected digestive products were analyzed by HPLC on a C18 column.

[9] = system: Lactobacillus helveticus PEP (Genbank ID#321529)
PQPQLPYPQPQLP = test: Acceleration of brush border mediated digestion by exogenous endoproteases; assay type: biochemical, wheat; settings: 27 ng/μl BBM, one hour
Description: FIG. 3. Dose dependent acceleration of brush border mediated digestion by exogenous endoproteases. […] This peptide was digested with 27 ng/μl brush border membranes, either alone, with increasing amounts of exogenous prolyl endopeptidase (PEP, specific activity 28 μU/pg) from Flavobacterium meningosepticum (US Biological, MA), or with additional elastase (E-1250, Sigma, Mo.), bromelain (B-5144, Sigma, Mo.) or papain (P-5306, Sigma, Mo.) (12). After one hour, the fraction of remaining (SEQ ID NO:4) […] (compared to the initial amount at t=0 min) was analyzed and quantified as in FIG. 1.
Alerted by the high proline content as a hallmark of most immunogenic gliadin peptides, a proline-specific endopeptidase was tested for the generation of new, free peptide termini. A literature search on available proteases led to the identification of prolyl endopeptidase (PEP) from Flavobacterium meningosepticum, which is specific for the C-terminal cleavage of prolines and readily available from recombinant sources (Yoshimoto et al. (1991) J. Biochem. 110, 873-8). The stable (SEQ ID NO:4) […] intermediate was digested with BBM in the presence of exogenous PEP. […] As little as 3.5 pg PEP/27 ng BBM protein was sufficient to double the extent of proteolysis of this gliadin fragment compared to incubation with BBM alone. In comparison, other commonly used proteases like papain, bromelain or porcine elastase were much less efficient, requiring 30-fold (papain) or 3000-fold (bromelain, elastase) higher amounts of enzyme compared to PEP to give similar results. Their proteolysis was restricted to the cleavage of the Gln^4-Leu^5 and/or Gln^11-Leu^12 bonds.
A similar preferential cleavage was found for (SEQ ID NO:1) QLQPFP^↓QPQLPY. This is in agreement with the preference of this prolyl endopeptidase for a second proline in the S2′ position (Bordusa and Jakubke (1998) Bioorg. Med. Chem. 6, 1775-80). Based on this P^↓XP motif and on the present data, up to 16 new, major cleavage sites can be predicted in the α2-gliadin sequence, a major source of immunodominant epitopes identified thus far upon PEP treatment. All of them are located in the critical N-terminal part. The internal cleavage by PEP can be expected to generate additional (otherwise inaccessible) substrates for DPP IV and DCP thereby complementing the natural assimilation process of gliadins by the BBM. Thus, the specificity of prolyl endopeptidase is ideally suited for detoxification of persistent immunoactive gliadin peptides in Celiac Sprue.

PQPQLPYPQPQLPY = test: Hydrolysis of gliadin peptide by pancreatic proteases; assay type: biochemical, wheat; settings: elastase at 100 ng/μl (non-physiological)
From the text: Because BBM exopeptidases are restricted to N- or C-terminal processing, it was investigated if generation of additional free peptide ends by pancreatic enzymes would accelerate digestion.

[10] = kidney or brush border membranes

Which “digestion of purified α2-gliadin” value (α2-gliadin; acidic conditions, mature form) does the source give for “EPB2: cysteine endoprotease from barley (Hordeum vulgare), accession U19384” here?
Its value is “efficiently digests purified α2-gliadin”.

And the “time by which mature form undergoes autolysis” value (α2-gliadin; citrate-phosphate buffer, pH 3)?
The value was ≤ 72 h.

Which fragment found [1] does the source give for LQLQPFPQPQLPYPQPQLPYPQPQLPYPQPQPF here?
Its fragment found is “YPQPQPF, first_seen, t=5 min”.

And the fragment found [2]?
The fragment found was “(SEQ ID NO:12, aa 1-19) LQLQPFPQPQLPYPQPQLP, first_seen, t=1 min; also recorded: (SEQ ID NO:12, aa 1-14) LQLQPFPQPQLPYP, first_seen, t=1 min; also recorded: (SEQ ID NO:12, aa 1-12) LQLQPFPQPQLP, first_seen, t=1 min; also recorded: QPQPF, first_seen, t=1 min”.

What about the not cleaved (chymotrypsin) of the same molecule?
The not cleaved was “remained intact despite prolonged exposure to proteases”.

And the not cleaved [3]?
Its not cleaved is “stable product of gastric and pancreatic digestion”.

With PQPQLPYPQPQLP as the molecule, how does the not cleaved [4] read?
The not cleaved was “resistant to proteolysis by pepsin or any pancreatic enzyme”.

What about the cleaved bond ([1]; up to t=5 min) of the same molecule?
The cleaved bond was “P-Y, major, t=5 min”.

What about the cleaved bond [5] of the same molecule?
Its cleaved bond is “P-Q, t=5 min; also recorded: P-Y, t=5 min”.

What about the cleaved bond ([2]; up to t=5 min) of the same molecule?
The cleaved bond was “P-Q, major, t=5 min”.

And the cleaved bond [6]?
The cleaved bond was “Pro8-Gln9, major; also recorded: Pro6-Tyr7, minor”.

What does the source list for QLQPFPQPQLPY?
apparent half life of disappearance of parent peptide [7, 10]: 35 min; fraction proteolyzed in the perfusion experiment [8]: > 90%

For RPKHPIKHQ, which cleaved bond [9] is on record?
The cleaved bond was “P-I”.

With RRLIEDNEYTARG as the molecule, how does the “clearance of digestive intermediates” value [7] read?
The value was “cleared completely within one hour”.

And the “apparent half life of disappearance of parent peptide” value [7, 10]?
The value was 10 min.

For WQIPEQSR, which half-life of disappearance [7, 10] is on record?
Its half-life of disappearance is ~60 min.

For YQEPVLGPVRGPFPIIV, which cleaved bond [9] is on record?
The cleaved bond was “P-V and P-I”.

For bromelain [reference compound], which “higher amount of enzyme compared to PEP to give similar results” value (shortened to “higher amount of enzyme compared to PEP”) (PQPQLPYPQPQLP) is on record?
The value was 3000 fold.

With chymotrypsin as the molecule, how does the “hydrolysis of PQPQLPYPQPQLPY” value (PQPQLPYPQPQLPY) read?
The value was “No proteolysis was detected”.

For “elastase: porcine elastase (E-1250, Sigma), pancreatic protease [reference compound]”, which “hydrolysis of PQPQLPYPQPQLPY” value (PQPQLPYPQPQLPY) is on record?
The value was “capable of hydrolyzing”.

What about the “higher amount of enzyme compared to PEP” value (PQPQLPYPQPQLP) of the same molecule?
Its value is 3000 fold.

For “proEPB2: inactive proprotein form of barley endoprotease EPB2”, which “pH optimum of proEPB2 activation and α2-gliadin digestion” value (α2-gliadin) is on record?
Its value is 2.4-3.5.

For trypsin, which “hydrolysis of PQPQLPYPQPQLPY” value (PQPQLPYPQPQLPY) is on record?
The value was “No proteolysis was detected”.

B1: papain: papain (P-5306, Sigma) (protein, UniProt P00784 134-345, looked up)
Papain: IPEYVDWRQKGAVTPVKNQGSCGSCWAFSAVVTIEGIIKIRTGNLNEYSEQELLDCDRRSYGCNGGYPWSALQLVAQYGIHYRNTYPYEGVQRYCRSREKGPYAAKTDGVRQVQPYNEGALLYSIANQPVSVVLEAAGKDFQLYRGGIFVGPCGNKVDHAVAAVGYGPNYILIKNSWGTGWGENGYIRIKRGTGNSYGVCGLYTSSFYPVKN
With B1 as the molecule, how does the “higher amount of enzyme compared to PEP” value (PQPQLPYPQPQLP) read?
The value was 30 fold.

Reference: patent US8796201B2 (The Board of Trustees of the Leland Stanford Junior …, priority 2002, dated 2014)
